Assay results as given in patent publication US20010049372A1, “Antiviral nucleoside analogues” (BioChem Pharma Inc., priority 1998, published 2001).
Where two headings read alike, the source gives them in different places.

Columns and labels:
[1] = test system: HepG2 cells; test: Mitochondria DNA toxicity assay; type: cell-based; conditions: 28 days, up to 100 μM, the highest concentration tested (FIG. 1)
Method: Mitochondria DNA (mtDNA) toxicity of the compound A (−) was tested in HepG2 cells. The cells were cultured for 28 days under the compound treatment. Th cells were passaged once a week. However, the cell culture medium containing proper concentration of the compound was changed twice a week. Zalcitabine was used as a control. The toxicity was determined by measuring content ratio of mtDNA and nuclear DNA (28s rDNA) by a southern hybridization assay (de Muys et al., 1999). […]

[2] = Preliminary pharmacokinetic study in male adult rats; type: in vivo; conditions: rat; for half-life / AUC / Cmax: male, plasma; for AUC: read-out: AUC; for Cmax: read-out: Cmax
Method: The bioavailability of the compounds were evaluated in male adult rats dosed intravenously through the tail vein (5 mg/kg) and orally (20 mg/kg). The plasma samples were collected at 2, 5, 15, 30, 60, 90, 120 and 240 minutes after intravenous dosing and 5, 15, 30, 60, 90, 120, 240 and 360 minutes after oral dosing.
Blood samples (1 ml) were collected from the rat tails into a vacutainer containing EDTA (3 ml) for both iv and po administrations. Plasma samples were prepared by centrifugation at 2000 ×g for 15 minutes at 4° C.
Plasma samples (diluted to 1 ml with water) were loaded onto the Abselut Nexus sorbent (# 1210-3100 ) and drawn through under low vacuum (approximately 5′′ Hg). One milliliter of deionized water was added to the sorbent and drawn through under vacuum. The extraction column was dried for 1 minute using a high vacuum (>10′′ Hg). One milliliter of methanol was added to the Abselut Nexus column and the eluent was collected at 1-2 ml/min. The eluent was evaporated to dryness using a Speed Vac, and the samples were reconstituted in 120 μl H2O; 100 μl was used for injection.

[3] = test system: HT1080; test: Cellular toxicity by [3H]-thymidine uptake; type: cell-based; conditions: Table 4; 72 hrs
How it was run: (§1)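 Cells plated at 1-2×10^3/well, pre-incubated 24 h, then exposed 72 h to 10-fold serial compound dilutions (10^−4 M to 10^−10 M). [3H]-thymidine was added for the final 18 h and DNA incorporation counted after hypotonic lysis and harvesting. CC50 derived from cpm relative to untreated controls.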

[4] = test system: Molt-4; test: Cellular toxicity by [3H]-thymidine uptake; type: cell-based; conditions: Table 14; 72 hrs; read-out: CC50 (μM) [^3H]TTP incorporation in: Molt4
How it was run: as §1

[5] = test system: HepG-2; test: Cellular toxicity by [3H]-thymidine uptake; type: cell-based; conditions: Table 4; 72 hrs
How it was run: as §1

[6] = test system: HSF; test: Cellular toxicity by [3H]-thymidine uptake; type: cell-based; conditions: Table 14; 72 hrs; read-out: CC50 (μM) [^3H]TTP incorporation in: HSF
How it was run: as §1

Nc1nc(NC2CC2)c2ncn([C@H]3CO[C@@H](CO)O3)c2n1 [Compound A (-), (−)-(2R,4R)-2-hydroxymethyl-4-(2′-amino-6′-cyclopropylamino-purine-9′-yl)-1,3-dioxolane]
mtDNA toxicity (content ratio of mtDNA and nuclear DNA, southern hybridization) [1]: did not show significant mtDNA toxicity | half-life ([2]; iv 5 mg/kg): 22.2 min | AUC ([2]; iv 5 mg/kg): 4740 ng·h/mL | Cmax ([2]; iv 5 mg/kg): 14300 ng/mL | half-life ([2]; oral 20 mg/kg): 38.4 min | AUC ([2]; oral 20 mg/kg): 8640 ng·h/mL | Cmax ([2]; oral 20 mg/kg): 4200 ng/mL | Oral BA (%) ([2]; oral 20 mg/kg): 45.56%

Nc1ccn([C@@H]2CS[C@H](CO)O2)c(=O)n1 [Lamivudine, lamivudine]
CC50 (μM) [^3H-]TTP incorporation in: HT1080 [3]: >500/100 | CC50 [4]: > 100 µM | CC50 (μM) [^3H-]TTP incorporation in: HepG2 [5]: 350/100

Cc1cn([C@H]2C[C@H](N=[N+]=[N-])[C@@H](CO)O2)c(=O)[nH]c1=O [Zidovudine, zidovudine]
CC50 [6]: > 10 µM
